Assay results reported in PMC12802961 (Journal of Antimicrobial Chemotherapy, 2025).

Columns and labels:
E. coli 52 = experiment: Checkerboard broth microdilution MIC of cefepime alone and with taniborbactam; assay type: cell-based, Escherichia coli
Text: (§1) Four previously well-characterized cefepime-resistant isolates, namely one ESBL-producing E. coli, one ESBL-producing K. pneumoniae and two P. aeruginosa (one VIM- and one AmpC constitutively -producing), were used.

K. pneumoniae 59 [1] = experiment: as above; assay type: cell-based, Klebsiella pneumoniae
Text: as §1

P. aeruginosa 106 [2] = experiment: as above; assay type: cell-based, Pseudomonas aeruginosa
Text: as §1

P. aeruginosa 132 [3] = experiment: as above; assay type: cell-based, Pseudomonas aeruginosa
Text: as §1

[4] = Protein binding, equilibrium dialysis chamber, LC-MS/MS; assay type: in vitro ADME
Text: […]. […] […].
. […] Free drug concentrations were used in all calculations. […]

K. pneumoniae 59 [5] = experiment: Neutropenic murine thigh infection model; assay type: in vivo, Klebsiella pneumoniae
Procedure: (§2) All dosing regimens were performed in at least two animals per dosing regimen.
(§3) At t = 0 h, 2 h after infection, two mice were humanely euthanized to determine the initial number of cfu/thigh just before treatment. […] Subsequently, thighs were homogenized using the Ultra-Turrax homogenizer (IKA Labortechnik, Germany). For each thigh 10-fold dilution series were prepared and 3 × 10 µL per dilution were plated (Chromagar, bioMérieux, NL). The following day, colonies were counted and the number of cfu/thigh was calculated.
(§4) Free drug concentrations were used in all calculations.

P. aeruginosa 106 [6] = experiment: Neutropenic murine thigh infection model; assay type: in vivo, Pseudomonas aeruginosa
Procedure: as §2, §3, §4

P. aeruginosa 132 [7] = experiment: Neutropenic murine thigh infection model; assay type: in vivo, Pseudomonas aeruginosa
Procedure: as §2, §3, §4

[8] = cefepime monotherapy q2h, extrapolated
[9] = cefepime monotherapy q2h s.c. 24 h
[10] = cefepime monotherapy, extrapolated

CO/N=C(\C(=O)N[C@@H]1C(=O)N2C(C(=O)[O-])=C(C[N+]3(C)CCCC3)CS[C@H]12)c1csc(N)n1 [cefepime, Cefepime]
Cefepime MIC at taniborbactam 0.03 mg/L (E. coli 52; E. coli 52, +taniborbactam 0.03 mg/L): 0.5 µg/mL | Cefepime MIC at taniborbactam 0.06 mg/L (E. coli 52; E. coli 52, +taniborbactam 0.06 mg/L): 0.5 µg/mL | Cefepime MIC at taniborbactam 0.125 mg/L (E. coli 52; E. coli 52, +taniborbactam 0.125 mg/L): 0.25 µg/mL | Cefepime MIC at taniborbactam 0.25 mg/L (E. coli 52; E. coli 52, +taniborbactam 0.25 mg/L): 0.125 µg/mL | Cefepime MIC at taniborbactam 0.5 mg/L (E. coli 52; E. coli 52, +taniborbactam 0.5 mg/L): 0.06 µg/mL | Cefepime MIC at taniborbactam 1 mg/L (E. coli 52; E. coli 52, +taniborbactam 1 mg/L): 0.125 µg/mL | Cefepime MIC at taniborbactam 2 mg/L (E. coli 52; E. coli 52, +taniborbactam 2 mg/L): 0.06 µg/mL | Cefepime MIC at taniborbactam 4 mg/L (potMIC) (E. coli 52; E. coli 52, +taniborbactam 4 mg/L): 0.06 µg/mL | MIC (E. coli 52; Escherichia coli, 52, read-out: Cefepime MIC (mg/L) alone): 32 mg/L | Cefepime MIC at taniborbactam 0.03 mg/L (K. pneumoniae 59 [1]; K. pneumoniae 59, +taniborbactam 0.03 mg/L): 64 µg/mL | Cefepime MIC at taniborbactam 0.06 mg/L (K. pneumoniae 59 [1]; K. pneumoniae 59, +taniborbactam 0.06 mg/L): 32 µg/mL | Cefepime MIC at taniborbactam 0.125 mg/L (K. pneumoniae 59 [1]; K. pneumoniae 59, +taniborbactam 0.125 mg/L): 8 µg/mL | Cefepime MIC at taniborbactam 0.25 mg/L (K. pneumoniae 59 [1]; K. pneumoniae 59, +taniborbactam 0.25 mg/L): 2 µg/mL | Cefepime MIC at taniborbactam 0.5 mg/L (K. pneumoniae 59 [1]; K. pneumoniae 59, +taniborbactam 0.5 mg/L): 1 µg/mL | Cefepime MIC at taniborbactam 1 mg/L (K. pneumoniae 59 [1]; K. pneumoniae 59, +taniborbactam 1 mg/L): 1 µg/mL | Cefepime MIC at taniborbactam 2 mg/L (K. pneumoniae 59 [1]; K. pneumoniae 59, +taniborbactam 2 mg/L): 1 µg/mL | Cefepime MIC at taniborbactam 4 mg/L (potMIC) (K. pneumoniae 59 [1]; K. pneumoniae 59, +taniborbactam 4 mg/L): 0.5 µg/mL | MIC (K. pneumoniae 59 [1]; Klebsiella pneumoniae, 59, read-out: Cefepime MIC (mg/L) alone): 256 mg/L | Cefepime MIC at taniborbactam 0.03 mg/L (P. aeruginosa 106 [2]; P. aeruginosa 106, +taniborbactam 0.03 mg/L): 32 µg/mL | Cefepime MIC at taniborbactam 0.06 mg/L (P. aeruginosa 106 [2]; P. aeruginosa 106, +taniborbactam 0.06 mg/L): 32 µg/mL | Cefepime MIC at taniborbactam 0.125 mg/L (P. aeruginosa 106 [2]; P. aeruginosa 106, +taniborbactam 0.125 mg/L): 32 µg/mL | Cefepime MIC at taniborbactam 0.25 mg/L (P. aeruginosa 106 [2]; P. aeruginosa 106, +taniborbactam 0.25 mg/L): 16 µg/mL | Cefepime MIC at taniborbactam 0.5 mg/L (P. aeruginosa 106 [2]; P. aeruginosa 106, +taniborbactam 0.5 mg/L): 16 µg/mL | Cefepime MIC at taniborbactam 1 mg/L (P. aeruginosa 106 [2]; P. aeruginosa 106, +taniborbactam 1 mg/L): 16 µg/mL | Cefepime MIC at taniborbactam 2 mg/L (P. aeruginosa 106 [2]; P. aeruginosa 106, +taniborbactam 2 mg/L): 8 µg/mL | Cefepime MIC at taniborbactam 4 mg/L (potMIC) (P. aeruginosa 106 [2]; P. aeruginosa 106, +taniborbactam 4 mg/L): 4 µg/mL | MIC (P. aeruginosa 106 [2]; Pseudomonas aeruginosa, 106, read-out: Cefepime MIC (mg/L) alone): 32 mg/L | Cefepime MIC at taniborbactam 0.03 mg/L (P. aeruginosa 132 [3]; P. aeruginosa 132, +taniborbactam 0.03 mg/L): 16 µg/mL | Cefepime MIC at taniborbactam 0.06 mg/L (P. aeruginosa 132 [3]; P. aeruginosa 132, +taniborbactam 0.06 mg/L): 16 µg/mL | Cefepime MIC at taniborbactam 0.125 mg/L (P. aeruginosa 132 [3]; P. aeruginosa 132, +taniborbactam 0.125 mg/L): 8 µg/mL | Cefepime MIC at taniborbactam 0.25 mg/L (P. aeruginosa 132 [3]; P. aeruginosa 132, +taniborbactam 0.25 mg/L): 4 µg/mL | Cefepime MIC at taniborbactam 0.5 mg/L (P. aeruginosa 132 [3]; P. aeruginosa 132, +taniborbactam 0.5 mg/L): 2 µg/mL | Cefepime MIC at taniborbactam 1 mg/L (P. aeruginosa 132 [3]; P. aeruginosa 132, +taniborbactam 1 mg/L): 1 µg/mL | Cefepime MIC at taniborbactam 2 mg/L (P. aeruginosa 132 [3]; P. aeruginosa 132, +taniborbactam 2 mg/L): 1 µg/mL | Cefepime MIC at taniborbactam 4 mg/L (potMIC) (P. aeruginosa 132 [3]; P. aeruginosa 132, +taniborbactam 4 mg/L): 1 µg/mL | MIC (P. aeruginosa 132 [3]; Pseudomonas aeruginosa, 132, read-out: Cefepime MIC (mg/L) alone): 16 mg/L | fraction unbound [4]: 0.8 | Stasis: q2h dose (K. pneumoniae 59 [5]; cefepime monotherapy): 117.8 mg/kg | Stasis: %ƒT > MIC (K. pneumoniae 59 [5]; cefepime monotherapy q2h): 0.0% | 1 log10 kill: %ƒT > MIC (K. pneumoniae 59 [5]; cefepime monotherapy q2h, belongs to extrapolated dose): 15.9% | 1 log10 kill: Total daily dose, mg/kg (K. pneumoniae 59 [5]; [8]): (4371.3) mg/kg | Stasis: Total daily dose (K. pneumoniae 59 [5]; [9]): 1413.4 mg/kg | 1 log10 kill: q2h dose, mg/kg (K. pneumoniae 59 [5]; [10]): (364.0) mg/kg | Cefepime %fT > potMIC (K. pneumoniae 59 [5]; cefepime q2h 4 mg/kg, potMIC 0.5 mg/L (with 4 mg/L taniborbactam)): 69.30% | 1 log10 kill: %ƒT > MIC (P. aeruginosa 106 [6]; [8]): (47.4) % | 1 log10 kill: Total daily dose, mg/kg (P. aeruginosa 106 [6]; [8]): (3484.4) mg/kg | Stasis: %ƒT > MIC (P. aeruginosa 106 [6]; [8]): (36.9) % | Stasis: Total daily dose, mg/kg (P. aeruginosa 106 [6]; cefepime monotherapy q2h s.c. 24 h, extrapolated): (1901.6) mg/kg | 1 log10 kill: q2h dose, mg/kg (P. aeruginosa 106 [6]; [10]): (290.4) mg/kg | Stasis: q2h dose, mg/kg (P. aeruginosa 106 [6]; [10]): (158.5) mg/kg | Cefepime %fT > MIC (P. aeruginosa 106 [6]; cefepime q2h 64 mg/kg, MIC 32 mg/L): 22.10% | 1 log10 kill: q2h dose, mg/kg (P. aeruginosa 132 [7]; cefepime monotherapy): 59.9 mg/kg | 1 log10 kill: %ƒT > MIC (P. aeruginosa 132 [7]; cefepime monotherapy q2h): 32.4% | 1 log10 kill: Total daily dose, mg/kg (P. aeruginosa 132 [7]; cefepime monotherapy q2h): 718.3 mg/kg | Stasis: %ƒT > MIC (P. aeruginosa 132 [7]; cefepime monotherapy q2h): 8.9% | Stasis: Total daily dose (P. aeruginosa 132 [7]; [9]): 180.8 mg/kg | Cefepime %fT > potMIC (P. aeruginosa 132 [7]; cefepime q2h 8 mg/kg, potMIC 1 mg/L (with 4 mg/L taniborbactam)): 46.10%
